Details: Citrus sinensis
With `Cc1nnc(C)s1` [2,5-Dimethyl-1,3,4-thiadiazole] the “Distance Traveled” value was 14 cm.
For `O=CC=Cc1ccccc1` [Cinnamaldehyde], the “Distance Traveled” value was 12 cm.
For `C=CCSSSCC=C` [Diallyl Trisulfide], the “Distance Traveled” value was 26 cm.
With `C=CCSSCC=C` [Diallyl disulfide] the “Distance Traveled” value was 24 cm.

Source: patent US12414569B2 (priority 2019, dated 2025)
